# Numbered stars: 1 amine (or outer) side, 2 acyl side, 3 side chain; on linkers, the order of the positions; unused ones are H or OH. Bridge positions count the residues as written; N and C are the ends. Square brackets hold non-standard residues; d marks the D form. Peptide text beside a SMILES is read from it. Adda = CO[C@@H](Cc1ccccc1)[C@@H](C)/C=C(C)/C=C/[C@H](N[*:1])[C@H](C)C(=O)[*:2]; dAsp(3S-Me) = C[C@H](C(=O)[*:3])[C@@H](N[*:1])C(=O)[*:2]; d(γGlu) = O=C(O)[C@@H](CCC(=O)[*:2])N[*:1]; NMeDha = C=C(NC)C(=O)O
# Assays:
# [1] = target: T1, Solute carrier organic anion transporter family member 1A1 (Rattus norvegicus, UniProt P46720); assay: (§1) TP_TRANSPORTER: uptake in Xenopus laevis oocytes; assay type: functional, cell-based; details: oocyte
# T1 sequence (P46720 whole entry): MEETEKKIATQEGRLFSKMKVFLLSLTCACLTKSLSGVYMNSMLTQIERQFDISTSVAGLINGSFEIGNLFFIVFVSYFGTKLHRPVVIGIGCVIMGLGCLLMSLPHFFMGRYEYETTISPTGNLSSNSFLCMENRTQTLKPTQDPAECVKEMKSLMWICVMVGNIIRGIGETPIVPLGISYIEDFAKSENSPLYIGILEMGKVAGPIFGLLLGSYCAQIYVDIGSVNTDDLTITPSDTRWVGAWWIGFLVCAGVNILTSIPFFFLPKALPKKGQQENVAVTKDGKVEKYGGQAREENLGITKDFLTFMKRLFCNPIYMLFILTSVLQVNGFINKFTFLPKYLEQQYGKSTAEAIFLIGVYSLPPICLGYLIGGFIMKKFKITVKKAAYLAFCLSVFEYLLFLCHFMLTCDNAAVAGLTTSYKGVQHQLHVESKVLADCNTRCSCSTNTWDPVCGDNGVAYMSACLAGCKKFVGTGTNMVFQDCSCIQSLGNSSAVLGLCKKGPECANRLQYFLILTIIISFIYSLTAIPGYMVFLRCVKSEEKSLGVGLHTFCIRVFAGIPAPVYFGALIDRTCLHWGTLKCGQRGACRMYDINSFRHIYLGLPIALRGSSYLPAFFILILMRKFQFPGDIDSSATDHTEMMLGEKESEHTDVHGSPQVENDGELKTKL
# [2] = target: T2, Solute carrier organic anion transporter family member 1B2 (Rattus norvegicus, UniProt Q9QZX8); assay: as §1; assay type: functional, cell-based; details: oocyte
# T2 sequence (Q9QZX8 whole entry): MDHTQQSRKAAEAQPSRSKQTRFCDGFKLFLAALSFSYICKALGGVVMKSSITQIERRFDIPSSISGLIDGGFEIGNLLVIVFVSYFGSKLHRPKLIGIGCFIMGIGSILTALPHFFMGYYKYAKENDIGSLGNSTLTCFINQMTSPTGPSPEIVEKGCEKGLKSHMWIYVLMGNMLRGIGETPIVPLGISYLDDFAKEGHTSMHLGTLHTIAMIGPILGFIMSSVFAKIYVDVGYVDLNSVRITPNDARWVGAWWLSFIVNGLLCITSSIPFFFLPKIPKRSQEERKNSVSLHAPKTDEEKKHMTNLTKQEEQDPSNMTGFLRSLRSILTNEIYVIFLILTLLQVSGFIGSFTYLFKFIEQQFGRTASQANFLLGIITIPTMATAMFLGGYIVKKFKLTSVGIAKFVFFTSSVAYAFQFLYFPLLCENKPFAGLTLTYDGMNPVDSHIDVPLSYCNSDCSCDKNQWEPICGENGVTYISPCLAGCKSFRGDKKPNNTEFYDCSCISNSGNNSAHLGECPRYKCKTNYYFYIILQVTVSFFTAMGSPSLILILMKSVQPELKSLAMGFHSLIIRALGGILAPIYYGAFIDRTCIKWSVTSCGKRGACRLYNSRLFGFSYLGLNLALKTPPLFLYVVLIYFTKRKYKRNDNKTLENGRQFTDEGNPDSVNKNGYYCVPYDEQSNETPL
# [3] = target: T3, Solute carrier organic anion transporter family member 1A4 (Rattus norvegicus, UniProt O35913); assay: as §1; assay type: functional, cell-based; details: oocyte
# T3 sequence (O35913 whole entry): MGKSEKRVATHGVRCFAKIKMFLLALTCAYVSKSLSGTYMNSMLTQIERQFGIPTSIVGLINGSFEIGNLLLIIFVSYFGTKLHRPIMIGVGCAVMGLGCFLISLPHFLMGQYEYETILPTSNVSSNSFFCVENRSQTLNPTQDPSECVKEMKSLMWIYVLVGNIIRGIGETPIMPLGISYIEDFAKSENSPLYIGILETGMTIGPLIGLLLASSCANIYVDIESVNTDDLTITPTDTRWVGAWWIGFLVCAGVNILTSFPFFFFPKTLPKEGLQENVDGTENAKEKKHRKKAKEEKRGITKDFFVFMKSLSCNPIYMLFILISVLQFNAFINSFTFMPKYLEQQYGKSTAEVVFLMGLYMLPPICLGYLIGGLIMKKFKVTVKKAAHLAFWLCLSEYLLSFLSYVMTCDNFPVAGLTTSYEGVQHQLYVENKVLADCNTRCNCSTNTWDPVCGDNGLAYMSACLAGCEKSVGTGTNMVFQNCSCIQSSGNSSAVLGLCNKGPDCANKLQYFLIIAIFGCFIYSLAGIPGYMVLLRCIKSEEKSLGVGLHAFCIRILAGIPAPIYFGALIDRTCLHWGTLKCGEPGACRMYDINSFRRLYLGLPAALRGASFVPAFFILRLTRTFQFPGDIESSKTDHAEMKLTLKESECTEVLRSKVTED
# [4] = target: T4, Solute carrier organic anion transporter family member 2B1 (Homo sapiens, UniProt O94956); assay: as §1; assay type: functional, cell-based; details: oocyte
# T4 sequence (O94956 whole entry): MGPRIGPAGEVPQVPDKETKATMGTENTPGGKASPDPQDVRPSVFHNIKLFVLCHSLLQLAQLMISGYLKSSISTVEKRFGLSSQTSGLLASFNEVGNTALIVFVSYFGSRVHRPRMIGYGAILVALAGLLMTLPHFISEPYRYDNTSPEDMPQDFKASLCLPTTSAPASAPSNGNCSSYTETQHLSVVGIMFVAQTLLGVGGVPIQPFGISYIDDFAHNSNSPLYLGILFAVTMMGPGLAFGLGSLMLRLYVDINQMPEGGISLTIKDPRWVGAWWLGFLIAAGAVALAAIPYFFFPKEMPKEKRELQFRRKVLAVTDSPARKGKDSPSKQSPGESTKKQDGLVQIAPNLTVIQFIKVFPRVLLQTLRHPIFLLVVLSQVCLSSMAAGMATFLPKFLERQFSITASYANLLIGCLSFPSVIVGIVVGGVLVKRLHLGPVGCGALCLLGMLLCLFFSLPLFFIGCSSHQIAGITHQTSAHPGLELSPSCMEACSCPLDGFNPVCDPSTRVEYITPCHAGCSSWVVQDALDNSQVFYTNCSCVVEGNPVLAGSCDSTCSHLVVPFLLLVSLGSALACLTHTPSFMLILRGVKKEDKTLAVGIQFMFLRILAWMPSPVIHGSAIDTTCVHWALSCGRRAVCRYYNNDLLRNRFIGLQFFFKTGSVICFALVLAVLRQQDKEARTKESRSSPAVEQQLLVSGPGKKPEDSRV
# [5] = target: T5, Solute carrier organic anion transporter family member 1A2 (OATP1A2) (Homo sapiens, UniProt P46721); assay: as §1; assay type: functional, cell-based, Oocyte
# T5 sequence (P46721 whole entry): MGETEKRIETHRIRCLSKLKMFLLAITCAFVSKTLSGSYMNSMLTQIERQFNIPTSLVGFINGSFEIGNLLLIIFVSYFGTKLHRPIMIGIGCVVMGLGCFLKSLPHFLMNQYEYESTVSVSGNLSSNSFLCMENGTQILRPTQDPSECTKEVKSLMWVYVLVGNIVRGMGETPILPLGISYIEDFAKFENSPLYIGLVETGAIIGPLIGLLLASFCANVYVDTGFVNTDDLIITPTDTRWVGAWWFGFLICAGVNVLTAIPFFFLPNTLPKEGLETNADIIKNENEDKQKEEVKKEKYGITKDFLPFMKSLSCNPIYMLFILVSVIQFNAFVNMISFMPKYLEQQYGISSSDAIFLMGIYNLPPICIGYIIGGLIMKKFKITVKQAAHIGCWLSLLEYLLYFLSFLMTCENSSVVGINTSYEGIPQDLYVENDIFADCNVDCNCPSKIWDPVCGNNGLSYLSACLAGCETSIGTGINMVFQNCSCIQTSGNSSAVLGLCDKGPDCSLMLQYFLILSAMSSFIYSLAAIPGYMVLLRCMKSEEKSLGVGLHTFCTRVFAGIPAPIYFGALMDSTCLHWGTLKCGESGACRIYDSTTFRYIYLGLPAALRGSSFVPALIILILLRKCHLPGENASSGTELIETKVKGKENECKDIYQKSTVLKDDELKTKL
# [6] = target: T6, Solute carrier organic anion transporter family member 1B1 (OATP1B1) (Homo sapiens, UniProt Q9Y6L6); assay: as §1; assay type: functional, cell-based, Oocyte
# T6 sequence (Q9Y6L6 whole entry): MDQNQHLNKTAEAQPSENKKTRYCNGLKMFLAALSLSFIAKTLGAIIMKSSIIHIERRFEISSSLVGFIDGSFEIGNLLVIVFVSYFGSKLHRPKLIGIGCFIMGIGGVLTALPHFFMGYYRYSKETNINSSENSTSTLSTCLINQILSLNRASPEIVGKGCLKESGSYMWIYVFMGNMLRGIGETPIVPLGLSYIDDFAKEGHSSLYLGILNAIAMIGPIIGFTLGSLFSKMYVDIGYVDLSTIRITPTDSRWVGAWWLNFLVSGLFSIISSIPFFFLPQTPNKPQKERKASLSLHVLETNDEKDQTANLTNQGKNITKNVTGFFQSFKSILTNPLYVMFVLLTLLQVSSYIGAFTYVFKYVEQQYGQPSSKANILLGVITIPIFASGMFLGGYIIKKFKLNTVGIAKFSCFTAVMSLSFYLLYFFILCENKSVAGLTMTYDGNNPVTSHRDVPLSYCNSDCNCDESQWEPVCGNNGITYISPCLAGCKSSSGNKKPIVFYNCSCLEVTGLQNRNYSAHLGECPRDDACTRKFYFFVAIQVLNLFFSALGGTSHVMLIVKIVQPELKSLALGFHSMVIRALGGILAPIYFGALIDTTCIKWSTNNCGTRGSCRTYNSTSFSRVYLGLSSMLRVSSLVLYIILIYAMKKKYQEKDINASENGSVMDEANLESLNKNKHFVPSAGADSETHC
# [7] = target: T7, Solute carrier organic anion transporter family member 1B3 (OATP1B3) (Homo sapiens, UniProt Q9NPD5); assay: as §1; assay type: functional, cell-based, Oocyte
# T7 sequence (Q9NPD5 whole entry): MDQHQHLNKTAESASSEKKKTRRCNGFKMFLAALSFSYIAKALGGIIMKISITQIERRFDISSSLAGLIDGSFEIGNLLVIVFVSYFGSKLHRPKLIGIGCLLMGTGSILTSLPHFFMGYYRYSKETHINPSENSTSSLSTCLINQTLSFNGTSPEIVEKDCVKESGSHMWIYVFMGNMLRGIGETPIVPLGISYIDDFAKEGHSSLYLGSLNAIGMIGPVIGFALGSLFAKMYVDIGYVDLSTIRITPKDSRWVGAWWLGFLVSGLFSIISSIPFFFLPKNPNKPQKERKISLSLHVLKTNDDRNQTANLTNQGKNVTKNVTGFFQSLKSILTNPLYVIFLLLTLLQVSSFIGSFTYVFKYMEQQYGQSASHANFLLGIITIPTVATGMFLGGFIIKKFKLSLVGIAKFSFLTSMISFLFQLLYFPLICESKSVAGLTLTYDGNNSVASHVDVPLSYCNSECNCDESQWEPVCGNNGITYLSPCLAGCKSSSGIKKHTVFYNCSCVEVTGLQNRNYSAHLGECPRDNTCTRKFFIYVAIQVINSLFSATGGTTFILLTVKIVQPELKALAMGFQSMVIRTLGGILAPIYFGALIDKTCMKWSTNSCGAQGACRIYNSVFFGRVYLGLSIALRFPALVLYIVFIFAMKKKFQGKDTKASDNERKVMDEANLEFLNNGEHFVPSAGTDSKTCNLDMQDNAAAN
structure (smiles),measurement,setting,value
C=C1C(=O)N[C@H](C)C(=O)N[C@@H](CC(C)C)C(=O)N[C@@H](C(=O)O)[C@H](C)C(=O)N[C@@H](CCCNC(=N)N)C(=O)N[C@@H](/C=C/C(C)=C/[C@H](C)[C@H](Cc2ccccc2)OC)[C@H](C)C(=O)N[C@@H](C(=O)O)CCC(=O)N1C [MICROCYSTIN-LR] (R[Adda][d(γGlu)][NMeDha][dA]L[dAsp(3S-Me)]-OH; lactam N-7),Activity,[1],is not a substrate [(-)]
same,Activity,[2],substrate [(+)]
same,Activity,[3],is not a substrate [(-)]
same,Activity,[4],is not a substrate [(-)]
same,Km,[5],20 µM
same,Km,[6],12.4 µM
same,Km,[7],12.4 µM

# — ChEMBL document CHEMBL2074479, “Organic anion transporting polypeptides expressed in liver and brain mediate uptake of microcystin” (Toxicol Appl Pharmacol, 2005)
